{
  "source": "patent US20240299328A1",
  "about": "“COMPOSITIONS COMPRISING 15-HEPE AND METHODS OF TREATING AND/OR PREVENTING HEMATOLOGIC DISORDERS AND RELATED DISEASES” (Afimmune Limited, priority 2023, published 2024)",
  "key": {"BDL-operated mice": {"system": "BDL-operated mice", "assay_type": "in vivo", "description": "BDL Surgery: On Day 0 of the study, BDL surgery was performed under pentobarbital anesthesia. The mouse's hair was first shaved, the abdominal cavity cut open, and the common bile duct was ligated twice with 7-0 surgical silk. The mouse's peritoneum and the skin were closed with sutures, and the mice were transferred to a clean cage (e.g., resting cage) until recovered from anesthesia. Sham operated mice had their common bile duct exposed but not ligated.\nAnimals: Pathogen-free 6 weeks of age male C57BL/6J mice were obtained. The animals were maintained in a specific-pathogen free (SPF) facility under controlled conditions of temperature (e.g., 23±2° C.), humidity (e.g., 45±10%), lighting (e.g., 12-hour artificial light and dark cycles; light from 8:00 to 20:00) and air exchange. A high pressure was maintained in the experimental room to prevent contamination of the facility. The animals were housed in TPX cages with a maximum of 4 mice per cage. Sterilized Paper-Clean was used for bedding and replaced once a week. Sterilized solid normal diet was provided ad libitum, being placed in a metal lid on the top of the cage. Pure water was also provided ad libitum from a water bottle equipped with a rubber stopper and a sipper tube. Water bottles were replaced once a week, cleaned, and sterilized in an autoclave and reused. Mice were identified by ear punch and each cage was labeled with a specific identification code.\nAnimal Monitoring and Sacrifice: The viability, clinical signs and behavior for the mice were monitored daily. Individual body weight was measured daily before treatment during the treatment period. […] The animals were sacrificed at Day 14 after BDL surgery by exsanguination through direct cardiac puncture under isoflurane anesthesia."}, "Sprague Dawley rats": {"system": "Sprague Dawley rats", "experiment": "26 week rat toxicity study: coagulation", "assay_type": "in vivo", "details": "male rats, 26 weeks", "description": "The test and control items were administered to the appropriate animals by once daily oral gavage 7 days a week for a minimum of 26 weeks. The volume for each animal was based on the most recent body weight measurements. The doses were given using a syringe with attached gavage cannula. The first day of dosing was designated as Day 1. The dosing formulations were removed from the refrigerator and stirred for at least 30 minutes before dosing. The dosing formulations were also stirred continuously during dosing.\nSample Collection: Blood was collected via the tail vein unless immediately prior to necropsy, when blood was collected from the orbital sinus under non-recoverable isoflurane anesthesia. Blood was collected in ascending animal order unless samples were collected prior to necropsy where the order of euthanasia was followed. Additional blood samples were obtained (e.g., due to clotting of non-serum samples) if permissible sampling frequency and blood volume were not exceeded. After collection, samples were transferred to the appropriate laboratory for processing. Samples were collected according to the following table.\nCoagulation: A 0.5 mL blood sample was collected using the anticoagulant 3.8% (w/v) trisodium citrate for processing to plasma. To assess coagulation the following coagulation parameters were measured.\nAnimals: The study used male and female Sprague Dawley rats purchased from Charles River UK Limited (Margate, Kent, UK). The target age at the initial dosing was 7-8 weeks. The target weight at the initial dosing was 175-300 g (males) and 120-250 g (females). Each animal was identified using a subcutaneously implanted electronic cylindrical, “glass-sealed” TROVAN microchip."}, "NAFLD patients": {"system": "NAFLD patients", "excerpt": "Safety Assessments included the following: medical history; physical examination; ECG; vital signs; clinical laboratory safety tests (e.g., hematology, serum biochemistry, coagulation, lipid profile, and urinalysis); virology; pregnancy test; blood sampling; pharmacokinetic sampling; exploratory blood collection; biomarker blood collection; urine DOA and alcohol breath test; adverse event assessment; concomitant medication; bioanalysis; sample, storage, handling; and shipping; and restrictions. A detailed description of each is provided below.\nAEs were recorded in the case report form, defining relationship to IMP and severity.\nSAE: If a patient experienced a serious adverse event after the first dose of the study drug, the event was recorded as a SAE. A SAE is characterized as an untoward medical occurrence at any dose to include any of the following: results in death, is life threatening, requires in-patient hospitalization or prolongation of existing hospitalization, or results in persistent or significant disability/incapacity. The term “life-threatening” refers to an event in which the patient was at risk of death at the time of the event.\nSafety Analysis: Demographic, medical history and physical examination data were listed for each patient and summarized descriptively. All AEs recorded during the study were coded to system organ class and preferred terms using the current version of the Medical Dictionary for Regulatory Activities (MedDRA). AEs were tabulated and summarized by treatment, relationship to treatment, seriousness and severity. Clinical laboratory values (e.g., hematology, biochemistry, and urinalysis) were listed for each patient by treatment and day. Values outside the laboratory normal ranges were listed separately with associated comments as to their clinical significance, with potentially clinically significant abnormalities highlighted and summarized by treatment. Clinical laboratory values obtained prior to dosing were defined as baseline values. Alcohol breath test and DOA test results were listed for each patient. Individual values of vital signs were listed and summarized descriptively for each treatment and day. 12 lead ECG assessments were listed for each patient with all associated comments and summarized by treatment and day. Concomitant medications (if any), categorized by medication group and subgroup according to the latest version of the World Health Organization drug dictionary, were listed and summarized by treatment. In general, appropriate descriptive statistics according to the nature of the variable were applied. Categorical variables were presented using counts and percentage, whilst continuous variables were presented using mean, standard deviation, median, minimum, maximum, coefficient of variation and number of patients."}, "rats": {"system": "rats", "details": "28-day dose ranging study; cited from earlier work"}, "[1]": {"details": "50 mg/kg PO QD Day 0-13, Day 14, mean ± SD"}, "[2]": {"details": "250 mg/kg PO QD Day 0-13, Day 14, mean ± SD"}, "[3]": {"details": "DS102 50, 250, 500 mg/kg groups vs Vehicle group"}, "[4]": {"details": "6000/3000 mg/kg/day oral gavage"}},
  "note": "Like-named read-outs stand apart in the source and are kept apart here. Marks after values point to notes of the source that are not given here.",
  "data": [
    {"compound": "CC/C=C\\C[C@H](O)/C=C/C=C\\C/C=C\\C/C=C\\CCCC(=O)OCC", "note": "[DS102, 15(S)-hydroxy-(5Z,8Z,11Z,13E,17Z)-eicosapentaenoic acid ethyl ester]", "values": [
      {"measurement": "Body Weight", "setting": "BDL-operated mice; [1]", "value": "17.4 ± 2.9", "unit": "g"},
      {"measurement": "Liver Weight", "setting": "BDL-operated mice; [1]", "value": "1392 ± 328", "unit": "mg"},
      {"measurement": "Body Weight", "setting": "BDL-operated mice; [2]", "value": "17.0 ± 2.4", "unit": "g"},
      {"measurement": "Liver Weight", "setting": "BDL-operated mice; [2]", "value": "1513 ± 182", "unit": "mg"},
      {"measurement": "Body Weight", "setting": "BDL-operated mice; 500 mg/kg PO QD Day 0-13, Day 14, mean ± SD", "value": "16.4 ± 1.6", "unit": "g"},
      {"measurement": "mean body weight at any day during the study period", "setting": "BDL-operated mice; [3]", "value": "no significant changes"},
      {"measurement": "mean body weight on the day of sacrifice", "setting": "BDL-operated mice; [3]", "value": "no significant differences"},
      {"measurement": "mice found dead before reaching Day 14", "setting": "BDL-operated mice; in the DS102 low, middle and high groups (50, 250, 500 mg/kg), Vehicle three out of 15", "value": "seven out of 15"},
      {"measurement": "Activated Partial Thromboplastin Time (APTT), Mean", "setting": "Sprague Dawley rats; 2000 mg/kg/day oral gavage", "value": "15.03* sec"},
      {"measurement": "Fibrinogen (FIB), Mean", "setting": "Sprague Dawley rats; 2000 mg/kg/day oral gavage", "value": "2.35** g/L"},
      {"measurement": "Prothrombin Time (PT), Mean", "setting": "Sprague Dawley rats; 2000 mg/kg/day oral gavage", "value": "10.69** sec"},
      {"measurement": "Activated Partial Thromboplastin Time (APTT), Mean", "setting": "Sprague Dawley rats; [4]", "value": "15.73** sec"},
      {"measurement": "Fibrinogen (FIB), Mean", "setting": "Sprague Dawley rats; [4]", "value": "2.26** g/L"},
      {"measurement": "Prothrombin Time (PT), Mean", "setting": "Sprague Dawley rats; [4]", "value": "10.81** sec"},
      {"measurement": "AEs leading to treatment discontinuation", "setting": "NAFLD patients; 1 g DS102 (n = 32)", "value": "0 n (%)"},
      {"measurement": "Death", "setting": "NAFLD patients; 1 g DS102 (n = 32)", "value": "0 n (%)"},
      {"measurement": "Patients with ≥1 AE", "setting": "NAFLD patients; 1 g DS102 (n = 32)", "value": "19 (59.4) n (%)"},
      {"measurement": "Patients with ≥1 AE related to study drug", "setting": "NAFLD patients; 1 g DS102 (n = 32)", "value": "2 (6.3) n (%)"},
      {"measurement": "Patients with ≥1 SAE", "setting": "NAFLD patients; 1 g DS102 (n = 32)", "value": "0 n (%)"},
      {"measurement": "SAEs related to drug study", "setting": "NAFLD patients; 1 g DS102 (n = 32)", "value": "0 n (%)"},
      {"measurement": "AEs leading to treatment discontinuation", "setting": "NAFLD patients; 2 g DS102 (n = 30)", "value": "0 n (%)"},
      {"measurement": "Death", "setting": "NAFLD patients; 2 g DS102 (n = 30)", "value": "0 n (%)"},
      {"measurement": "Patients with ≥1 AE", "setting": "NAFLD patients; 2 g DS102 (n = 30)", "value": "15 (50.0) n (%)"},
      {"measurement": "Patients with ≥1 AE related to study drug", "setting": "NAFLD patients; 2 g DS102 (n = 30)", "value": "3 (10.0) n (%)"},
      {"measurement": "Patients with ≥1 SAE", "setting": "NAFLD patients; 2 g DS102 (n = 30)", "value": "1 (3.3) n (%)"},
      {"measurement": "SAEs related to drug study", "setting": "NAFLD patients; 2 g DS102 (n = 30)", "value": "0 n (%)"},
      {"measurement": "safety and tolerance", "setting": "NAFLD patients; NAFLD patients, 1 g or 2 g per day, 16 weeks, compared to placebo", "value": "safe and well tolerated"},
      {"measurement": "oral maximum tolerated dose (MTD)", "setting": "rats", "value": 6, "unit": "g/kg/day"}
    ]}
  ]
}
